Counter-ions that a name gives are not always drawn. Peptide text beside a SMILES is read from it.

In the first test the test system is PRKACA-PRKAR2A interaction (SmBiT-PRKACA / LgBiT-PRKAR2A), protein kinase A. Further details: NanoLuc complementation counter-screen in cell extract, PRKACA with PRKAR2A, loss of luminescence, detects NanoLuc interference. The settings on record: 0.5 h, 20 µM; inhibitor.
As to `Cc1cccc(C)c1NC1=NCCCS1` [UM0134421:02, Xylazine HCl], the “Inh (PKA)” value came to 1.103%.

Consider `Cc1sc2c(c1C)C(c1ccc(Cl)cc1)=N[C@@H](CC(=O)Nc1ccc(O)cc1)c1nnc(C)n1-2` [UM0139428:02, OTX-015], for which the “Inh (PKA)” value was found to be 7.269. In the case of `CC(C)(O)CNc1nc(Nc2ccnc(C(F)(F)F)c2)nc(-c2cccc(C(F)(F)F)n2)n1` [UM0139434:02, AG-221 (Enasidenib)], the “Inh (PKA)” value is recorded as 31.79.

Still in this test, the particulars now being: counter-screen for NanoLuc interference, 0.5 h, 20 µM, inhibitor, Inh (PKA).
Consider `CNCc1ccc(-c2[nH]c3cc(F)cc4c3c2CCNC4=O)cc1` [UM0135471:02, Rucaparib (AG-014699,PF-01367338)], for which the “Inh (PKA)” value came out at 3.125%. Still for that read-out and setting: with `Nc1ccn([C@@H]2O[C@H](CO)[C@@H](O)C2(F)F)c(=O)n1` [UM0141399:01, Gemcitabine HCl] the figure was 0.8082%; with `CC(=O)Oc1cc2c(s1)CCN(C(C(=O)C1CC1)c1ccccc1F)C2` (centres unmarked) [UM0141405:01, Prasugrel], 8.306%.

The test is the same for the next values; noted with them: counter-screen for NanoLuc interference; 0.5 h, 20 µM; inhibitor.
For the compound `C=CCn1c(=O)c2cnc(Nc3ccc(N4CCN(C)CC4)cc3)nc2n1-c1cccc(C(C)(C)O)n1` [UM0135452:02, MK-1775], the “Inh (PKA)” value was determined as 7.841%. Regarding `CS(=O)(=O)c1ccc(-c2cnc(N)c(C(=O)Nc3ccccc3)n2)cc1` [UM0135461:02, VE-821], the “Inh (PKA)” value came to 11.31%. In the case of `CNCc1ccc(-c2cc(-c3nc(-c4ccc(S(=O)(=O)C(C)C)cc4)cnc3N)on2)cc1` [UM0135462:02, VE-822], the “Inh (PKA)” value worked out at 14.15%. For `O=c1cc(N2CCOCC2)oc2c(-c3cccc4c3sc3ccccc34)cccc12` [UM0135467:02, NU7441 (KU-57788)], the “Inh (PKA)” value is recorded as 24.55%.

As for `CC(C)(C#N)c1ccc(N2C(=O)OCc3cnc4ccc(-c5cnc6ccccc6c5)cc4c32)cc1` [UM0135469:02, ETP-46464], the “Inh (PKA)” value turned out to be 11.28%. Regarding `O=C(c1cc(Cc2n[nH]c(=O)c3ccccc23)ccc1F)N1CCN(C(=O)C2CC2)CC1` [UM0135473:02, Olaparib (AZD2281, Ku-0059436)], the “Inh (PKA)” value was found to be 2.339%. On to `CC(C)C[C@H](NC(=O)[C@H](Cc1ccccc1)NC(=O)c1cnccn1)B(O)O` [UM0135483:03, Bortezomib (PS-341)], for which the “Inh (PKA)” value amounted to 1.59%.

Consider `CO[C@H]1C[C@@H]2CC[C@@H](C)[C@@](O)(O2)C(=O)C(=O)N2CCCC[C@H]2C(=O)O[C@H]([C@H](C)C[C@@H]2CC[C@@H](OC(=O)C(C)(CO)CO)[C@H](OC)C2)CC(=O)[C@H](C)/C=C(\C)[C@@H](O)[C@@H](OC)C(=O)[C@H](C)C[C@H](C)/C=C/C=C/C=C/1C` [UM0135484:03, Temsirolimus], for which the “Inh (PKA)” value is 1.626%.

Consider `Cn1cncc1[C@@](N)(c1ccc(Cl)cc1)c1ccc2c(c1)c(-c1cccc(Cl)c1)cc(=O)n2C` [UM0135485:03, Tipifarnib (Zarnestra)], for which the “Inh (PKA)” value is given as 47.09%. Regarding `COc1cc(Nc2ncc3c(n2)-c2ccc(Cl)cc2C(c2c(F)cccc2OC)=NC3)ccc1C(=O)O` [UM0135487:02, MLN8237 (Alisertib)], the “Inh (PKA)” value worked out at 50.43%. Consider `CS(=O)(=O)c1ccc(C(=O)Nc2ccc(Cl)c(-c3ccccn3)c2)c(Cl)c1` [UM0135488:02, GDC-0449 (Vismodegib)], for which the “Inh (PKA)” value is 8.773%. For the compound `CC1(C)CCC(CN2CCN(c3ccc(C(=O)NS(=O)(=O)c4ccc(NCC5CCOCC5)c([N+](=O)[O-])c4)c(Oc4cnc5[nH]ccc5c4)c3)CC2)=C(c2ccc(Cl)cc2)C1` [UM0135497:03, ABT-199], the “Inh (PKA)” value was 28.89%. On to `S=c1[nH]cnc2nc[nH]c12` [UM0135507:02, Mercaptopurine (6-MP)], for which the “Inh (PKA)” value is listed as 1.981%. The same measure, in the same setting: with `Cn1nnc2c(C(N)=O)ncn2c1=O` [UM0135509:03, Temozolomide] the figure was 1.163%; with `Cc1[nH]c2ccccc2c1CCNCc1ccc(/C=C/C(=O)NO)cc1` [UM0135511:02, Panobinostat (LBH589)], 3.589%.

On to `CN(C)CC[C@H](CSc1ccccc1)Nc1ccc(S(=O)(=O)NC(=O)c2ccc(N3CCN(Cc4ccccc4-c4ccc(Cl)cc4)CC3)cc2)cc1[N+](=O)[O-]` [UM0136062:02, ABT-737], for which the “Inh (PKA)” value is on record as 17.72%. In the case of `Cc1cnc(Nc2ccc(OCCN3CCCC3)cc2)nc1Nc1cccc(S(=O)(=O)NC(C)(C)C)c1` [UM0136753:02, TG101348 (SAR302503)], the “Inh (PKA)” value is on record as 24.97%. Consider `Cc1cc(Nc2nc(N[C@@H](C)c3ncc(F)cn3)ncc2Cl)[nH]n1` [UM0136754:02, AZD1480], for which the “Inh (PKA)” value came out at 15.63%. Turning to `N#CCNC(=O)c1ccc(-c2ccnc(Nc3ccc(N4CCOCC4)cc3)n2)cc1` [UM0136756:02, CYT387], the “Inh (PKA)” value stood at 3.804%. On the same count and under the same terms, with `C/C(=C\C(=O)Nc1ccccc1C(=O)O)c1ccc2ccccc2c1` [UM0138522:02, BIBR 1532] the figure was 77.2%; with `CC1(COc2ccc3c(c2)ncn3-c2ccc3cccc(N4CCC(N)CC4)c3n2)COC1` [UM0139425:02, Crenolanib (CP-868596)], 13.43%; with `CCCCc1nc2cc(/C=C/C(=O)NO)ccc2n1CCN(CC)CC` [UM0139427:02, Pracinostat (SB939)], 1.482%. For the compound `O=C1[C@H](Cc2ccc(O)cc2)N2C(=O)CCN(C(=O)NCc3ccccc3)[C@H]2CN1Cc1cccc2ccccc12` [UM0139430:02, ICG 001], the “Inh (PKA)” value came out at 13.98%. On to `N#Cc1ccnc(N2C(=O)CC[C@H]2C(=O)N(c2cncc(F)c2)[C@H](C(=O)NC2CC(F)(F)C2)c2ccccc2Cl)c1` [UM0139433:02, AG-120], for which the “Inh (PKA)” value is 2.094%. Turning to `CCOC(=O)c1sc(NC(=O)c2ccco2)c(SC#N)c1C` [UM0139891:02, CBR-5884], the “Inh (PKA)” value was 28.46%. `NC(=O)Nc1cc(-c2cccc(F)c2)sc1C(=O)N[C@H]1CCCNC1` [UM0139975:02, AZD7762]: the “Inh (PKA)” value came to 35.89%. Take `C=CC(=O)N1C/C(=C\c2ccc([N+](=O)[O-])cc2)C(=O)/C(=C/c2ccc([N+](=O)[O-])cc2)C1` [UM0139980:02, NSC 687852 (b-AP15)]: the “Inh (PKA)” value is reported as 14.65%. `O=C(O)O` [UM0141172:02, Lithium carbonate]: the “Inh (PKA)” value is -3.585%. Same read-out and setting: as for `NCC(=O)NCC(=O)N[C@@H](Cc1ccc(O)cc1)C(=O)N[C@@H](CCCN=C(N)N)C(=O)O` [UM0141375:01, Papain Inhibitor] (H-GGYR-OH), the figure is 1.556%.

In the case of `Cn1cc(-c2ccc3nnc(Sc4ccc5ncccc5c4)n3n2)cn1` [UM0141386:01, SGX-523], the “Inh (PKA)” value worked out at 2.769%. For `CCCCCCCCCC(=O)N[C@@H](Cc1c[nH]c2ccccc12)C(=O)N[C@H](CC(N)=O)C(=O)N[C@@H](CC(=O)O)C(=O)N[C@@H]1C(=O)NCC(=O)N[C@@H](CCCN)C(=O)N[C@@H](CC(=O)O)C(=O)N[C@H](C)C(=O)N[C@@H](CC(=O)O)C(=O)NCC(=O)N[C@H](CO)C(=O)N[C@@H]([C@H](C)CC(=O)O)C(=O)N[C@@H](CC(=O)c2ccccc2N)C(=O)O[C@@H]1C` [UM0141387:01, Daptomycin], the “Inh (PKA)” value worked out at 0.4906%. With `C=C1C[C@@H]2[C@H](CC[C@]3(C)C(=O)CC[C@@H]23)[C@@]2(C)C=CC(=O)C=C12` [UM0141388:01, Exemestane], the “Inh (PKA)” value worked out at 1.515%. For `CCc1cc(Nc2nccc(-c3c(-c4ccc(OC)c(C(=O)Nc5c(F)cccc5F)c4)nc4ccccn34)n2)c(OC)cc1N1CCC(N2CCN(S(C)(=O)=O)CC2)CC1` [UM0141389:01, GSK1904529A], the “Inh (PKA)” value is reported as 3.167%. Regarding `N#Cc1ccc(C(c2ccc(C#N)cc2)n2cncn2)cc1` [UM0141390:01, Letrozole], the “Inh (PKA)” value is on record as 1.331%.

For the compound `CCOc1cc(N)c(Cl)cc1C(=O)NCC1CN(Cc2ccc(F)cc2)CCO1` (centres unmarked) [UM0141391:01, Mosapride Citrate], the “Inh (PKA)” value amounted to 13.81%. For `C=CC[N+]1([C@H]2C[C@H]3[C@@H]4CC[C@H]5C[C@H](O)[C@@H](N6CCOCC6)C[C@]5(C)[C@H]4CC[C@]3(C)[C@H]2OC(C)=O)CCCC1` [UM0141392:01, Rocuronium Bromide], the “Inh (PKA)” value is recorded as 2.002%. As to `COc1cc(N2CCC(N3CCN(C)CC3)CC2)ccc1Nc1ncc(Cl)c(Nc2ccccc2P(C)(C)=O)n1` [UM0141393:01, AP26113], the “Inh (PKA)” value turned out to be 6.926%. The same measure, in the same setting: as for `C[C@@H](O)[C@H]1C(=O)N2C(C(=O)[O-])=C(SC3Cn4cnc[n+]4C3)[C@H](C)[C@H]12` (some centres unmarked) [UM0141395:01, Biapenem], the figure is 2.946%; as for `C=CC(=O)Nc1cccc(Oc2nc(Nc3ccc(N4CCN(C)CC4)cc3OC)ncc2Cl)c1` [UM0141397:01, WZ4002], 30.48%. For the compound `C=CC(=O)Nc1cccc(Sc2nc(Nc3ccc(N4CCN(C)CC4)cc3)ncc2Cl)c1` [UM0141398:01, WZ8040], the “Inh (PKA)” value is listed as 37.33%. On to `COc1ccc(S(=O)(=O)Nc2cccnc2Nc2ccc(O)cc2)cc1` [UM0141402:01, ABT-751 (E7010)], for which the “Inh (PKA)” value is given as 8.683%. Turning to `C[C@@H](CN1CC(=O)NC(=O)C1)N1CC(=O)NC(=O)C1` [UM0141403:01, Dexrazoxane HCl (ICRF-187, ADR-529)], the “Inh (PKA)” value is listed as 2.168%. For the compound `O=C(N/N=C/c1ccc(O)c(O)c1)c1cc2ccccc2cc1O` [UM0141404:01, Dynasore], the “Inh (PKA)” value worked out at 24%. Still for that read-out and setting: as for `Oc1ccc(-c2nc(-c3ccc(F)cc3)c(-c3ccncc3)[nH]2)cc1` [UM0141406:01, SB202190 (FHPI)], the figure is 40.66%; as for `CCNC(=O)Nc1ccc(-c2nc3c(c(N4CCOC[C@@H]4C)n2)CCN(C2COC2)C3)cc1` [UM0141407:01, GDC-0349], 3.779%.

With `C[C@]12C=CC(=O)N[C@@H]1CC[C@@H]1[C@@H]2CC[C@]2(C)[C@@H](C(=O)Nc3cc(C(F)(F)F)ccc3C(F)(F)F)CC[C@@H]12` [UM0141408:01, Dutasteride], the “Inh (PKA)” value turned out to be 7.996%. In the case of `C[C@@H](O[C@H]1OCCN(Cc2n[nH]c(=O)[nH]2)[C@H]1c1ccc(F)cc1)c1cc(C(F)(F)F)cc(C(F)(F)F)c1` [UM0141409:01, Aprepitant], the “Inh (PKA)” value came out at 12.87%.
